Experimental data published in patent US11542255B2, “Sulfonylureas and sulfonylthioureas as NLRP3 inhibitors” (Inflazome Limited, priority 2017, dated 2023).
Counter-ions that a name gives are not always drawn.

Key:
NLRP3 [1] = biological target: T1, NLRP3 (Homo sapiens, UniProt Q96P20); test: THP-1 cells pyroptosis assay (LPS + nigericin, resazurin readout); type: cell-based; design: Seed THP-1 cells (25,000 cells/well) containing 1.0 μg/ml LPS in 40 μl of RPMI medium; host or cells: THP-1 cells; settings: NLRP3 inhibitory activity, 1.0 μg/ml LPS, 5 μM nigericin
T1 sequence (Q96P20 whole entry): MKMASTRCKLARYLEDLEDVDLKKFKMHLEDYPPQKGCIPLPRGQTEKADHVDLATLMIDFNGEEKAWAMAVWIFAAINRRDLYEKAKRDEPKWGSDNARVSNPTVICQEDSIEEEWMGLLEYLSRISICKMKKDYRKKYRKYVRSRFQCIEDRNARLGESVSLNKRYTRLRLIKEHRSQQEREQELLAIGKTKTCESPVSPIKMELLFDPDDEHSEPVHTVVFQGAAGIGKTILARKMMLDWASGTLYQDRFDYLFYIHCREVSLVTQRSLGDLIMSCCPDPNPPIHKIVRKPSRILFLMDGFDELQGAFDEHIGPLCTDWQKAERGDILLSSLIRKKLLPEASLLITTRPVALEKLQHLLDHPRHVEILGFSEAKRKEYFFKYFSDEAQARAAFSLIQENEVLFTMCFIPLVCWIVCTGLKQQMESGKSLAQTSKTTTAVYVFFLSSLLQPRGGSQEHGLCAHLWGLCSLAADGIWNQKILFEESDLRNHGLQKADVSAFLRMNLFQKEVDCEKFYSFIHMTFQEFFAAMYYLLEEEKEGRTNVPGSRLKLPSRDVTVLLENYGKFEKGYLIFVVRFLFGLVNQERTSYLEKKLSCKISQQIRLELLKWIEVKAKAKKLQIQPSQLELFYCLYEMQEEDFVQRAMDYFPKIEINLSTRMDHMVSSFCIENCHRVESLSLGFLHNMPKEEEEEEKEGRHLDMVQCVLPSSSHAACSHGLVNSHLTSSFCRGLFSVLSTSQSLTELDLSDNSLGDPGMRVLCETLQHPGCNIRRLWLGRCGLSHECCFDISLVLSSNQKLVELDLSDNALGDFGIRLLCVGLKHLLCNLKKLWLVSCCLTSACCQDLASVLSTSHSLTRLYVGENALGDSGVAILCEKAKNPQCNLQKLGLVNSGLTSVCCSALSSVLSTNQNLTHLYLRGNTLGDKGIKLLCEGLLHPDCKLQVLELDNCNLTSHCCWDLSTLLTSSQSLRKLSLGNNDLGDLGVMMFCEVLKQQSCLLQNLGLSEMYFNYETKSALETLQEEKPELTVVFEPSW
How it was run: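 LPS-primed (1 μg/ml) THP-1 cells, 25,000/well in serum-free RPMI, given compound (8-point half-log, 10 μM top; 0.1% DMSO) for 3 h at 37 °C, then nigericin 5 μM for 1 h. Viability by resazurin (100 μM, 1-2 h), Ex 560/Em 590 nm; IC50 from 4-parameter variable-slope fit.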

NLRP3 [2] = biological target: T1, NLRP3; test: Human whole blood IL1β release assay (LPS + nigericin, AlphaLisa IL-1β); type: cell-based; design: Human whole blood in Li-heparin tubes was obtained from healthy donors from a volunteer donor panel; from tissue; host or cells: human whole blood from healthy donors; settings: NLRP3 inhibitory activity, 1 μg/ml LPS, 10 μM nigericin, IL-1β release, read-out: HWB IC50
How it was run: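 Donor human whole blood (Li-heparin) was primed with 1 μg/mL LPS while incubated with compound (8-point half-log, 10 μM top, 0.1% DMSO) for 3 h at 37° C., then stimulated with 10 μM nigericin for 1 h. Supernatant IL-1β measured by AlphaLISA; IC50 from 4-parameter nonlinear fit.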

In the case of `CCC(c1cc(S(=O)(=O)NC(=O)Nc2c(C(C)C)cc(Cl)cc2C(C)C)nn1C)N(C)C` (centres unmarked) [Example 64, N-((4-Chloro-2,6-diisopropylphenyl)carbamoyl)-5-(1-(dimethylamino)propyl)-1-methyl-1H-pyrazole-3-sulfonamide], the IC50 (NLRP3 [1]) is reported as < 40 nM and the IC50 (NLRP3 [2]) is reported as 800 to 1600 nM.

For `Cc1cc(-c2cc(F)cc(C(C)C)c2NC(=O)NS(=O)(=O)c2cc(CN(C)C)n(C)n2)n(C)n1` [Example 40, N-((2-(1,3-Dimethyl-1H-pyrazol-5-yl)-4-fluoro-6-isopropylphenyl)carbamoyl)-5-((dimethylamino)methyl)-1-methyl-1H-pyrazole-3-sulfonamide], the IC50 (NLRP3 [1]) was 160 to 640 nM and the IC50 (NLRP3 [2]) was 400 to 800 nM.

`CC(C)n1nc(S(=O)(=O)NC(=O)Nc2c3c(cc4c2CCC4)CCC3)cc1C1CCCN1C` (centres unmarked) [Example 186] was tested, and the IC50 (NLRP3 [1]) was < 40 nM and the IC50 (NLRP3 [2]) was 400 to 800 nM.

In the case of `CCn1nc(S(=O)(=O)NC(=O)Nc2c3c(cc4c2OCC4)CCC3)cc1CN(C)C` [Example 185], the IC50 (NLRP3 [1]) is reported as 160 to 640 nM and the IC50 (NLRP3 [2]) is reported as 1600 to 3200 nM.

With `CC(c1cc(S(=O)(=O)NC(=O)Nc2c3c(cc4c2CCC4)CCC3)nn1C)N1CCC1` (single isomer, unassigned; enantiomer 1) [Example 26, 5-(1-(Azetidin-1-yl)ethyl)-N-((1,2,3,5,6,7-hexahydro-s-indacen-4-yl)carbamoyl)-1-methyl-1H-pyrazole-3-sulfonamide, Sodium Salt (Enantiomer 1)] the IC50 (NLRP3 [1]) was 40 to 160 nM and the IC50 (NLRP3 [2]) was < 400 nM.

With `CC(C)c1cc(F)cc(-c2cccc(C#N)c2)c1NC(=O)NS(=O)(=O)c1cc(CN(C)C)n(C(C)C)n1` [Example 45, N-((3′-Cyano-5-fluoro-3-isopropyl-[1,1′-biphenyl]-2-yl)carbamoyl)-5-((dimethylamino)methyl)-1-isopropyl-1H-pyrazole-3-sulfonamide] the IC50 (NLRP3 [1]) was 160 to 640 nM and the IC50 (NLRP3 [2]) was 800 to 1600 nM.

Molecule `CC(C)n1nc(S(=O)(=O)NC(=O)Nc2c3c(cc4c2CCC4)CCC3)cc1CN(C)CC(F)F` [Example 56, 5-(((2,2-Difluoroethyl)(methyl)amino)methyl)-N-((1,2,3,5,6,7-hexahydro-s-indacen-4-yl)carbamoyl)-1-isopropyl-1H-pyrazole-3-sulfonamide, Sodium Salt] has an IC50 (NLRP3 [1]) of 40 to 160 nM and an IC50 (NLRP3 [2]) of 3200 to 10000 nM.

For `CCn1nc(S(=O)(=O)NC(=O)Nc2c3c(cc4c2CCO4)CCC3)cc1CN(C)C` [Example 184], the IC50 (NLRP3 [1]) was < 40 nM and the IC50 (NLRP3 [2]) was 400 to 800 nM.

Work on `COCCN(CCOC)C(=O)c1cc(S(=O)(=O)NC(=O)Nc2c(-c3ccnc(OC(C)C)c3)cc(F)cc2C(C)C)nn1C` [Example 174, 3-(N-((4-Fluoro-2-(2-isopropoxypyridin-4-yl)-6-isopropyl-phenyl)carbamoyl)sulfamoyl)-N,N-bis(2-methoxyethyl)-1-methyl-1H-pyrazole-5-carboxamide, sodium salt] yielded an IC50 (NLRP3 [1]) of 2560 to 10000 nM and an IC50 (NLRP3 [2]) of 3200 to 10000 nM.

Molecule `COCCN(C)Cc1cc(S(=O)(=O)NC(=O)Nc2c3c(cc4c2CCC4)CCC3)nn1C` [Example 119, N-((1,2,3,5,6,7-Hexahydro-s-indacen-4-yl)carbamoyl)-5-(((2-methoxyethyl)(methyl)amino)methyl)-1-methyl-1H-pyrazole-3-sulfonamide, Sodium Salt] has an IC50 (NLRP3 [1]) of 160 to 640 nM and an IC50 (NLRP3 [2]) of 1600 to 3200 nM.

With `CN(C)CCc1cc(S(=O)(=O)NC(=O)Nc2c3c(cc4c2CCC4)CCC3)nn1C` [Example 59, 5-(2-(Dimethylamino)ethyl)-N-((1,2,3,5,6,7-hexahydro-s-indacen-4-yl)carbamoyl)-1-methyl-1H-pyrazole-3-sulfonamide] the IC50 (NLRP3 [1]) was 160 to 640 nM and the IC50 (NLRP3 [2]) was 800 to 1600 nM.

In the case of `CN1CCn2nc(S(=O)(=O)NC(=O)Nc3c4c(cc5c3CCC5)CCC4)cc2C1` [Example 5, N-((1,2,3,5,6,7-Hexahydro-s-indacen-4-yl)carbamoyl)-5-methyl-4,5,6,7-tetrahydropyrazolo[1,5-a]pyrazine-2-sulfonamide], the IC50 (NLRP3 [1]) is reported as 160 to 640 nM and the IC50 (NLRP3 [2]) is reported as 1600 to 3200 nM.

With `CCn1nc(S(=O)(=O)NC(=O)Nc2c(-c3ccnc(C#N)c3)cc(F)cc2C(C)C)cc1CN(C)C` [Example 35, N-((2-(2-Cyanopyridin-4-yl)-4-fluoro-6-isopropylphenyl)carbamoyl)-5-((dimethylamino)methyl)-1-ethyl-1H-pyrazole-3-sulfonamide] the IC50 (NLRP3 [1]) was 40 to 160 nM and the IC50 (NLRP3 [2]) was < 400 nM.

With `CC(C)c1cc(F)cc(-c2cccc(C#N)c2)c1NC(=O)NS(=O)(=O)c1cc(CN(C)C)n(C)n1` [Example 46, N-((3′-Cyano-5-fluoro-3-isopropyl-[1,1′-biphenyl]-2-yl)carbamoyl)-5-((dimethylamino)methyl)-1-methyl-1H-pyrazole-3-sulfonamide] the IC50 (NLRP3 [1]) was 40 to 160 nM and the IC50 (NLRP3 [2]) was < 400 nM.

For `CCC(c1cc(S(=O)(=O)NC(=O)Nc2c(-c3ccnc(OC)c3)ccc3c2CCC3)nn1C(C)C)N(C)C` (centres unmarked) [Example 180], the IC50 (NLRP3 [1]) was 40 to 160 nM and the IC50 (NLRP3 [2]) was < 400 nM.

In the case of `CCN(CC)Cc1cc(S(=O)(=O)NC(=O)Nc2c(C(C)C)cc(F)cc2C(C)C)nn1C` [Example 83, 5-((Diethylamino)methyl)-N-((4-fluoro-2,6-diisopropylphenyl)carbamoyl)-1-methyl-1H-pyrazole-3-sulfonamide, sodium Salt], the IC50 (NLRP3 [1]) is reported as 640 to 2560 nM and the IC50 (NLRP3 [2]) is reported as 400 to 800 nM.

In the case of `CCn1nc(S(=O)(=O)NC(=O)Nc2c(-c3ccnc(OC)c3)ccc3c2CCC3)cc1CN(C)C` [Example 17, 5-((Dimethylamino)methyl)-1-ethyl-N-((5-(2-methoxypyridin-4-yl)-2,3-dihydro-1H-inden-4-yl)carbamoyl)-1H-pyrazole-3-sulfonamide], the IC50 (NLRP3 [1]) is reported as < 40 nM and the IC50 (NLRP3 [2]) is reported as < 400 nM.

In the case of `CCn1nc(S(=O)(=O)NC(=O)Nc2c(C(C)C)cc(F)cc2C(C)C)cc1CN(C)C` [Example 51, 5-((Dimethylamino)methyl)-1-ethyl-N-((4-fluoro-2,6-diisopropylphenyl)carbamoyl)-1H-pyrazole-3-sulfonamide], the IC50 (NLRP3 [1]) is reported as 160 to 640 nM and the IC50 (NLRP3 [2]) is reported as < 400 nM.

In the case of `CC(C)c1cc(F)cc(-c2cccnc2)c1NC(=O)NS(=O)(=O)c1cc(C(=O)N(C)C)n(C)n1` [Example 134, 3-(N-((4-Fluoro-2-isopropyl-6-(pyridin-3-yl)phenyl)carbamoyl)sulfamoyl)-N,N,1-trimethyl-1H-pyrazole-5-carboxamide, sodium Salt], the IC50 (NLRP3 [1]) is reported as 40 to 160 nM and the IC50 (NLRP3 [2]) is reported as < 400 nM.

With `CC(C)n1nc(S(=O)(=O)NC(=O)Nc2c3c(cc4c2CCC4)CCC3)cc1CN1CCC1` [Example 53, 5-(Azetidin-1-ylmethyl)-N-((1,2,3,5,6,7-hexahydro-s-indacen-4-yl)carbamoyl)-1-isopropyl-1H-pyrazole-3-sulfonamide] the IC50 (NLRP3 [1]) was < 40 nM and the IC50 (NLRP3 [2]) was 400 to 800 nM.

In the case of `CC1CN(C(C)c2cc(S(=O)(=O)NC(=O)Nc3c4c(cc5c3CCC5)CCC4)nn2C)C1` (centres unmarked) [Example 29, N-((1,2,3,5,6,7-Hexahydro-s-indacen-4-yl)carbamoyl)-1-methyl-5-(1-(3-methylazetidin-1-yl)ethyl)-1H-pyrazole-3-sulfonamide], the IC50 (NLRP3 [1]) is reported as 40 to 160 nM and the IC50 (NLRP3 [2]) is reported as 400 to 800 nM.

In the case of `CCn1nc(S(=O)(=O)NC(=O)Nc2c(-c3ccnc(OC)c3)cc(F)c3c2CCC3)cc1CN(C)C` [Example 21, 5-((Dimethylamino)methyl)-1-ethyl-N-((7-fluoro-5-(2-methoxypyridin-4-yl)-2,3-dihydro-1H-inden-4-yl)carbamoyl)-1H-pyrazole-3-sulfonamide], the IC50 (NLRP3 [1]) is reported as < 40 nM and the IC50 (NLRP3 [2]) is reported as < 400 nM.

With `CN(C)Cc1cc(S(=O)(=O)NC(=O)Nc2c3c(cc4c2CCC4)CCC3)nn1C(C)(C)C` [Example 37, 1-(tert-Butyl)-5-((dimethylamino)methyl)-N-((1,2,3,5,6,7-hexahydro-s-indacen-4-yl)carbamoyl)-1H-pyrazole-3-sulfonamide] the IC50 (NLRP3 [1]) was < 40 nM and the IC50 (NLRP3 [2]) was 3200 to 10000 nM.

With `CNCc1cc(S(=O)(=O)NC(=O)Nc2c3c(cc4c2CCC4)CCC3)nn1C` [Example 67, N-((1,2,3,5,6,7-Hexahydro-s-indacen-4-yl)carbamoyl)-1-methyl-5-((methylamino)methyl)-1H-pyrazole-3-sulfonamide] the IC50 (NLRP3 [1]) was 40 to 160 nM and the IC50 (NLRP3 [2]) was 400 to 800 nM.

With `COc1cc(-c2cc(F)cc(C(C)C)c2NC(=O)NS(=O)(=O)c2cc(CN(C)C)n(C(C)C)n2)ccn1` [Example 47, 5-((Dimethylamino)methyl)-N-((4-fluoro-2-isopropyl-6-(2-methoxypyridin-4-yl)phenyl)carbamoyl)-1-isopropyl-1H-pyrazole-3-sulfonamide] the IC50 (NLRP3 [1]) was 40 to 160 nM and the IC50 (NLRP3 [2]) was < 400 nM.

`CC(C)c1cc(S(=O)(=O)NC(=O)Nc2c3c(cc4c2CCC4)CCC3)nn1CCN(C)C` [Example 6, 1-(2-(Dimethylamino)ethyl)-N-((1,2,3,5,6,7-hexahydro-s-indacen-4-yl)carbamoyl)-5-isopropyl-1H-pyrazole-3-sulfonamide] showed an IC50 (NLRP3 [1]) of 160 to 640 nM and an IC50 (NLRP3 [2]) of 800 to 1600 nM.

`COCCN(CCO)C(=O)c1cc(S(=O)(=O)NC(=O)Nc2c3c(cc4c2CCC4)CCC3)nn1C` [Example 102, 3-(N-((1,2,3,5,6,7-Hexahydro-s-indacen-4-yl)carbamoyl)sulfamoyl)-N-(2-hydroxyethyl)-N-(2-methoxyethyl)-1-methyl-1H-pyrazole-5-carboxamide, Partial ammonium Salt] gave an IC50 (NLRP3 [1]) of 40 to 160 nM and an IC50 (NLRP3 [2]) of 400 to 800 nM.

In the case of `CC(C)n1nc(S(=O)(=O)NC(=O)Nc2c3c(cc4c2CCC4)CCC3)nc1CN(C)C` [Example 187], the IC50 (NLRP3 [1]) is reported as < 40 nM and the IC50 (NLRP3 [2]) is reported as 800 to 1600 nM.
